Entries after “also recorded” stand apart in the source; their conditions may differ.
Tests used:
[1] = Rheology of SAPeptide solutions and self-assembled scaffolds; assay type: physicochemical; conditions: 1% w/v, 2% w/v and 3% w/v
Experimental: Rheological properties of the self-assembling peptides of the invention were determined using a controlled stress TA Instruments AR-2000ex rheometer (TA Instruments). A cone-and-plate geometry (acrylic cone diameter, 20 mm; angle, 1°; truncation gap 34 μm) was used. Preliminary strain sweeps were performed for each sample to define the linear viscoelastic region, thus ensuring that moduli were independent of strain. Time sweeps, after addition of PBS (1×) were recorded at 25 C (angular frequency ω=1 Hz) and continued till G′ plateaued. Frequency sweeps, both for peptide water solutions and for self-assembled scaffolds, were performed at 25 C with the instrument in oscillatory mode at controlled strain of 1%. Final strain sweeps was performed at 1 Hz oscillatory frequency and at 25 C: onset point of failure was calculated by linear interpolation and subsequent determination of the intersection of the G′ modes within the linear region and at material failure respectively.

murine NSCs [2] = test: Immunofluorescence of differentiated NSC progeny on SAP scaffolds, murine; assay type: cell-based
Experimental: (§1) In vitro tests were performed as previously described (8), in order to assess whether the biomaterials (assembled hydrogels) obtained with the SAPs of the present invention influenced NSCs adhesion, survival and/or differentiation. SAPeptides (30 μl for each well at a concentration of 10 mg/ml) were assembled into 96 multiwells two hours before cell. Cells (at a concentration of 2×10^4 cells/cm^2) were seeded on the top-surface of each assembled scaffold. Initially, cells were cultured with basal medium supplemented with βFGF (10 ng/ml), added to […]. At 3 days in vitro (DIV), βFGF medium was replaced with Leukemia Inhibitory Factor (LIF, Chemicon) (20 ng/ml) and Brain Derived Neurotrophic Factor (BDNF, Peprotech) (20 ng/ml). Fresh medium was added every three days. For both viability and differentiation assays positive and negative controls consisted of Cultrex-BME® substrate (R&D systems) (1:100 dilution in basal medium) and untreated bottom well surfaces respectively. Cell viability was quantified via CellTiter 96® Aqueous Proliferation Assay (Promega) at 7 DIV as recommended in the Promega protocol. After calibrating the linear response between the cell number and absorbance values, proliferated cell populations were quantified (n=5) by using a Vmax microplate reader (Molecular Devices) at 490 nm wavelength. Values, reported as means±standard error of the mean, were blanked to their respective controls consisting of same substrates and cell culture media without cells.
(§2) Immunofluorescence tests were performed for assaying the phenotypes of the differentiated human and murine NSC progenies. In the case of KLP and Ac-KLP just murine NSC have been used. Ac-KLP and KLP scaffolds were prepared at different concentrations in order to display three different stiffness values (viz. 100, 500 and 1000 Pa). This was done to assess the influence of scaffold concentration (and consequently its stiffness) over NSC differentiation. All the other peptides were tested at 1% v/w concentration instead. The following antibodies were used: rabbit polyclonal against GFAP (1:500, DakoCytomation) for astrocytes, mouse monoclonal against βIII-Tubulin (1:500, Covance) for neurons, mouse monoclonal against GalC (1:200, Chemicon) and O4 (1:200, Chemicon) for oligodendrocyes. Secondary Abs were Goat anti Mouse Alexa 488 (1:1000, Molecular Probes), Goat anti Mouse Cy3 (1:1000, Jackson Immunoresearch), Goat anti Rabbit Cy3 (1:1000, Jackson Immunoresearch). Cell nuclei were counterstained with DAPI (Molecular Probes). Quantitative analyses were performed by counting 100-300 cells for each of 9 randomly chosen fields over a total of 3 independent experiments. Phase contrast and fluorescence images of the adhering cells were acquired via Zeiss microscopes Axioplan 2 and ApoTome System at one week after seeding.

murine NSCs [3] = test: Imaging and cell proliferation assay (CellTiter 96 MTS) on assembled hydrogels, murine NSCs; assay type: cell-based; conditions: 7 DIV
Experimental: as §1

human NSCs [4] = test: Immunofluorescence of differentiated NSC progeny on SAP scaffolds, human; assay type: cell-based; conditions: 1% scaffold, compared to Cultrex positive control
Experimental: as §1
as §2, with “Cell nuclei were counterstained with DAPI (Molecular Probes).” left out

human NSCs [5] = test: Imaging and cell proliferation assay (CellTiter 96 MTS) on assembled hydrogels, human NSCs; assay type: cell-based; conditions: 7 DIV
Experimental: as §1

murine NSC = test: NSC differentiation on exposure to soluble heptapeptides (immunofluorescence); assay type: cell-based; conditions: 12 DIV, Cultrex and Laminin coated wells, peptide 0.1 mg/ml in media, vs untreated NSCs, p<0.05
Experimental: In vitro tests were performed as previously described (8), in order to assess whether the heptapeptides obtained of the present invention influence NSCs differentiation.
Murine cells (at a concentration of 2×10^4 cells/cm^2) were seeded in each well (96 multi-well plate) previously coated with Cultrex-BME® substrate (R&D systems) (1:100 dilution in basal medium, overnight incubation) or with Laminin (Roche) (1:5 dilution in PBS 1×, pH 7.4, overnight incubation).
Initially, cells were cultured with basal medium supplemented with βFGF (10 ng/ml), added to enhance neuronal progeny differentiation. At 3 days in vitro (DIV), βFGF medium was replaced with Leukemia Inhibitory Factor (LIF, Chemicon) (20 ng/ml) and Brain Derived Neurotrophic Factor (BDNF, Peprotech) (20 ng/ml). Fresh medium was added every three days. The chosen peptides were dissolved in all cell culture media (but not in the coatings) at a concentration of 0.1 mg/ml.
Immunofluorescence tests were performed for assaying the phenotypes of the differentiated murine NSC progenies. The following antibodies were used: rabbit polyclonal against GFAP (1:500, DakoCytomation) for astrocytes and mouse monoclonal against βIII-Tubulin (1:500, Covance) for neurons. Secondary Abs were Goat anti Mouse Alexa 488 (1:1000, Molecular Probes), Goat anti Mouse Cy3 (1:1000, Jackson Immunoresearch), Cell nuclei were counterstained with DAPI (Molecular Probes). Quantitative analyses were performed by counting 100-300 cells for each of 9 randomly chosen fields over a total of 3 independent experiments.
Values, reported as means±standard error of the mean (FIG. 1A).

[6] = 1% scaffold, compared to Cultrex positive control

Substance: Ac-KLPGWSGGGGLDLKLDLKLDLK-CONH2 (Ac-KLPGWSGGGGLDLKLDLKLDLK-NH2)
- G′ and G″ values at different concentrations [1]: increased with concentration increments
- differentiated neurons (βIIITubulin positive cells) in correspondence of stiffness reductions (murine NSCs [2]; scaffold stiffness 100, 500 and 1000 Pa): significant increments

Substance: NH2-FAQRVPPGGGLDLKLDLKLDLK-CONH2 (H-FAQRVPPGGGLDLKLDLKLDLK-NH2)
- cell morphology, adhesion and spreading on assembled hydrogels (murine NSCs [3]): spread and branched cells
- cell viability / proliferated cell population (MTS) (murine NSCs [3]; scaffolds 10 mg/ml, vs control, P<0.005): significantly fostered cell viability; also recorded: cell population was bigger; also recorded: significantly favored
- number of neurons (βIII-Tubulin) obtained (human NSCs [4]): significantly higher
- number of oligodendrocytes (GalC/O4) obtained (human NSCs [4]): significantly higher
- cell morphology, adhesion and spreading on assembled hydrogels (human NSCs [5]): spread and branched cells
- cell viability / proliferated cell population (MTS) (human NSCs [5]; scaffolds 10 mg/ml, vs control, P<0.03): significantly fostered cell viability; also recorded: cell population was bigger; also recorded: significantly favored
- number of neurons (βIII-Tubulin) obtained (murine NSCs [2]; [6]): significantly higher
- number of oligodendrocytes (GalC/O4) obtained (murine NSCs [2]; [6]): significantly higher

Substance: NH2-GETRAPL-CONH2 (H-GETRAPL-NH2) [#GET]
- percentage of differentiated neurons (Beta III Tubulin staining) (murine NSC): significant increase

Substance: NH2-HAIYPRH-CONH2 (H-HAIYPRH-NH2) [#HAI]
- percentage of differentiated neurons (Beta III Tubulin staining) (murine NSC): significant increase

Substance: NH2-KLPGWSG-CONH2 (H-KLPGWSG-NH2) [#KLP]
- percentage of differentiated neurons (Beta III Tubulin staining) (murine NSC): significant increase; also recorded: Highest increase
